Experimental data as given in US12421205B2, “GLP-1 receptor agonist” (HYUNDAI PHARM CO., LTD., priority 2019, dated 2025).

What was measured:
hERG = target: T1, hERG (Homo sapiens, UniProt Q12809); test: hERG inhibition test (Predictor hERG Fluorescence Polarization assay kit); type: binding; details: probe kit Tracer (fluorescent hERG ligand), hERG % inhibition at 10 uM, relative to E-4031 and solvent control
T1 construct: purchased Invitrogen PV5365
How it was run: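 Competitive fluorescence-polarization binding of fluorescent tracer to hERG membrane preparation, 2.5 h at room temperature, mP read at 531/579 nm. % inhibition at 10 uM test compound, scaled between solvent control (0%) and E-4031 (100%).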

human GLP-1 receptor = target: T2, human GLP-1 receptor (Homo sapiens, UniProt P43220); test: cAMP activity test (cAMP dynamic HTRF kit) in CHO-K1/GLP-1 receptor-expressing cells; type: cell-based; details: cAMP activity, CHO-K1/GLP-1 receptor-expressing cells; read-out: EC50
T2 construct: host or cells: CHO-K1
How it was run: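 Cells in HBSS with 0.1% BSA, 0.5 mM IBMX and 5 mM HEPES, then lysed; cAMP-d2 and anti-cAMP cryptate added for 3 h. HTRF read-out, where FRET signal is inversely proportional to intracellular cAMP.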

T1 sequence (Q12809 whole entry): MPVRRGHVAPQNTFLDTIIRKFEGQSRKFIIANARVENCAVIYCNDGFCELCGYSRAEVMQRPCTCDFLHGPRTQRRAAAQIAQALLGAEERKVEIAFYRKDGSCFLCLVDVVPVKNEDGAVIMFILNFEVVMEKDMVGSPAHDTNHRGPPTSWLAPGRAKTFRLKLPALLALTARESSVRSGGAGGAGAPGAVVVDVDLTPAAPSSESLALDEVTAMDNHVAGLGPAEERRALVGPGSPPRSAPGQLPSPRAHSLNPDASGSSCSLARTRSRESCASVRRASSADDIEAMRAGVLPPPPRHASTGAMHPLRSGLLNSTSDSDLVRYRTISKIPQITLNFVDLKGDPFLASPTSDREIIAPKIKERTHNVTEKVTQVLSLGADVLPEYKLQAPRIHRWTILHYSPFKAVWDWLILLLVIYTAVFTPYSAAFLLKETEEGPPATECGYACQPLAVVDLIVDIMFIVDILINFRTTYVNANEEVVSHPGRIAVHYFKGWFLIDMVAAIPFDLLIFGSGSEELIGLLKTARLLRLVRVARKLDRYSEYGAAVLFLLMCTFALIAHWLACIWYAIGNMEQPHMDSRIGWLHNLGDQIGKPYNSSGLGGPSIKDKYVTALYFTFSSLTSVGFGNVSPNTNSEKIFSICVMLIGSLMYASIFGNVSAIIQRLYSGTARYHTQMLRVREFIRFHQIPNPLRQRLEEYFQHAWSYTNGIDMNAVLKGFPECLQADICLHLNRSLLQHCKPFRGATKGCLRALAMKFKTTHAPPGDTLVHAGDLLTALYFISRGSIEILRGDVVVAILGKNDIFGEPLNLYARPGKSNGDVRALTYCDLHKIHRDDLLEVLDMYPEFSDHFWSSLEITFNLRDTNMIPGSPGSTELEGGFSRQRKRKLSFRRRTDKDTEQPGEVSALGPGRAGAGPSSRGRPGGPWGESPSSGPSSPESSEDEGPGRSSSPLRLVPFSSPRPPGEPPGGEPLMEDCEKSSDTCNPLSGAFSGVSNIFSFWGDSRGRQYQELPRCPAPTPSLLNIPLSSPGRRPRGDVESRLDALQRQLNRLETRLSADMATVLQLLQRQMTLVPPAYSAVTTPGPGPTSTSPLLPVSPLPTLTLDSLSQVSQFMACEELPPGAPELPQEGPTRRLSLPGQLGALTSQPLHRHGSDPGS
T2 sequence (P43220 24-463): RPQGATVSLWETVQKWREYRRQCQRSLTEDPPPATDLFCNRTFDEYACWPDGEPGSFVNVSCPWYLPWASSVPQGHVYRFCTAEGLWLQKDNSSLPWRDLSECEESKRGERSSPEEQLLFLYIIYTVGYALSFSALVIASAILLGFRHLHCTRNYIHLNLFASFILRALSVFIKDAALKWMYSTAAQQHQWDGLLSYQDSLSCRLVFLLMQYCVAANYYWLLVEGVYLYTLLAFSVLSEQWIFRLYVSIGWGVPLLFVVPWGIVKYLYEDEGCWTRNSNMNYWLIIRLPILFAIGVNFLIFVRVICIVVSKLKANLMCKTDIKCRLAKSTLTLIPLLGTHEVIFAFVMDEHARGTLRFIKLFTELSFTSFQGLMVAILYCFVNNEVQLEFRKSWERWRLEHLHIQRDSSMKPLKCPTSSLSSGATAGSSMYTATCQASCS

Row | Structure (SMILES) | EC50 (human GLP-1 receptor) [nM] | inhibition at 2.5 h, 10 µM (hERG) [%]
1 | O=C(O)c1ccc2nc(Cc3ccc(-c4cccc(OCc5ccc(Cl)cc5F)n4)cc3F)n(C[C@@H]3CCCO3)c2c1 [Example 59, (S)-2-(4-(6-(4-chloro-2-fluorobenzyloxy)pyridin-2-yl)-2-fluorobenzyl)-1-((tetrahydrofuran-2-yl)methyl)-1H-benzo[d]imidazole-6-carboxylic acid] | 5.8 | -21
2 | O=C(O)c1ccc2nc(Cc3c(F)cc(-c4cccc(OCc5ccc(Cl)cc5F)n4)cc3F)n(C[C@@H]3CCO3)c2c1 [Example 84, (S)-2-(4-(6-(4-chloro-2-fluorobenzyloxy)pyridin-2-yl)-2,6-difluorobenzyl)-1-(oxetan-2-ylmethyl)-1H-benzo[d]imidazole-6-carboxylic acid] | 4 | -1.15
3 | O=C(O)c1ccc2nc(Cc3ccc(-c4cccc(OCc5ccc(F)cc5F)n4)c(F)c3)n(C[C@@H]3CCO3)c2c1 [Example 119, (S)-2-(4-(6-((2,4-difluorobenzyl)oxy)pyridin-2-yl)-3-fluorobenzyl)-1-(oxetan-2-ylmethyl)-1H-benzo[d]imidazole-6-carboxylic acid] | 12 | 4.13
4 | COCCn1c(Cc2ccc(-c3cccc(OCc4ccc(C#N)cc4F)n3)cc2F)nc2ccc(C(=O)O)cc21 [Example 25, 2-(4-(6-(4-cyano-2-fluorobenzyloxy)pyridin-2-yl)-2-fluorobenzyl)-1-(2-methoxyethyl)-1H-benzo[d]imidazole-6-carboxylic acid] | 43 | 18.9

The next lines start with results.

Row | EC50 (human GLP-1 receptor) [nM] | Structure (SMILES) | inhibition at 2.5 h, 10 µM (hERG) [%]
5 | < 3.2 | N#Cc1ccc(COc2cccc(-c3cc(F)c(Cc4nc5ccc(C(=O)O)cc5n4C[C@@H]4CCO4)cc3F)n2)c(F)c1 [Example 115, (S)-2-(4-(6-((4-cyano-2-fluorobenzyl)oxy)pyridin-2-yl)-2,5-difluorobenzyl)-1-(oxetan-2-ylmethyl)-1H-benzo[d]imidazole-6-carboxylic acid] | -2.45
6 | 230 | N#Cc1ccc(COc2cccc(-c3ccc(Cc4nc5ccc(C(=O)O)cc5n4CCF)c(F)c3)n2)c(F)c1 [Example 44, 2-(4-(6-(4-cyano-2-fluorobenzyloxy)pyridin-2-yl)-2-fluorobenzyl)-1-(2-fluoroethyl)-1H-benzo[d]imidazole-6-carboxylic acid] | 1.77
7 | 850 | N#Cc1ccc(COc2cccc(-c3ccc(Cc4nc5ccc(C(=O)O)cc5n4CCF)c(F)c3)c2)c(F)c1 [Example 57, 2-((3′-(4-cyano-2-fluorobenzyloxy)-3-fluorobiphenyl-4-yl)methyl)-1-(2-fluoroethyl)-1H-benzo[d]imidazole-6-carboxylic acid] | 6.42
8 | 380 | N#Cc1ccc(COc2cccc(-c3ccn(Cc4nc5ccc(C(=O)O)cc5n4CC4CCCO4)c(=O)c3)c2)c(F)c1 (stereo not shown) [Example 107, 2-((4-(3-(4-cyano-2-fluorobenzyloxy)phenyl)-2-oxopyridin-1(2H)-yl)methyl)-1-((tetrahydrofuran-2-yl)methyl)-1H-benzo[d]imidazole-6-carboxylic acid] | 2.7
